Assay [1] deals with antibiotic resistant strains of Staphylococcus aureus. Description: NCCLS MIC antibiotic sensitivity with added chelator. The following applies: strain WBG525. In kind it is cell-based. The procedure: Sensitive or antibiotic resistant strains of Staphylococcus aureus (S. aureus) were grown on blood agar plates overnight at 37° C. Four to six individual colonies of each strain were harvested into Mueller-Hinton broth (MHB) and incubated at 37° C. until they reached an optical density equal to or exceeding a 0.5 McFarland standard. The culture was diluted with MHB to equal 0.5 McFarland standard. Dilutions (10^−1) of these standards were used for inocula. Various stains of antibiotic resistant Staphylococcus aureus were used for these tests as shown in the results below. It should be appreciated that growing the bacterial strains on blood agar and then in MHB ensured the inoculum was not restricted for iron prior to the test but rather the bacterial cells were with ample endogenous iron supply.
A range of two-fold dilutions of a test antibiotic was prepared in MHB. […] Soluble and insoluble chelating compositions, as prepared in Example 6 or Example 5, or the free iron chelating agent deferiprone were added to the antibiotic containing tubes at known concentrations of iron binding capacity (referred to as iron binding equivalents) to allow direct comparison of the different compositions or free chelator. The final volume per tube was 500 μl. Bacterial inoculum, 25 μl of the 10^−1 dilutions of the appropriate S. aureus strain was added to each tube. The tubes were incubated at an angle on a reciprocating shaker at 37° C. overnight and results were scored as growth based on turbidity or no growth (lack of turbidity). The Minimum Inhibitory Concentration (MIC) for the antibiotic was determined from the growth results.
A series of tests was set up as in Example 15 with various antibiotic anti-cellular agents. The clinically isolated strains were obtained from the culture collection of Warren Grubb, Curtin University, Perth, Australia.
A series of antibiotic sensitivity tests was set up as in example 16 utilizing the soluble chelating compositions as prepared in Example 6. Separate test series with different clinically isolated Staphylococcus aureus strains, as obtained from the culture collection of Warren Grubb, Curtin University, Perth, Australia, and various antibiotics were employed but for each series a control test comprising addition of iron sufficient to supply two times the chelating capacity of the supplied chelating composition was also included.

In assay [2] the test system is Candida albicans ATCC 10231. The experiment in a line: Growth with chelating materials of different molecular weight, 84 hours. The class given is cell-based. The conditions noted are these: 30° C., defined medium without added iron, FIG. 8. On the procedure:
Candida albicans ATCC 10231 was tested for its sensitivities to: the medical chelator deferiprone (#1 in the graph of FIG. 8) (a product of Apotex Pharmaceuticals); the precursor chemicals used for the preparation of soluble chelating compositions of the present invention, including 3-hydroxy-2-methyl-4-pyrone (#2 in the graph of FIG. 8), AHMP as from Example 1 (#3 in the graph of FIG. 8) and MAHMP as from Example 2 (#4 in the graph of FIG. 8) and also the soluble chelating composition as from Example 4 (#5 in the graph of FIG. 8). The yeast was grown in defined medium as for Example 18 with no additional added iron (i.e., the only but adequate Fe available for the yeast was contributed from being present along with the other added medium components). Growth of the yeast in the defined media with added test chelating materials was compared to control samples that had not received any of the chelating materials following 84 hours of incubation and growth at 30° C. […] These chelators being internalized by the yeast were incapable of restricting iron supply to the yeast cells. […] Thus, low molecular weight chelators such as deferiprone and similar compounds permitted growth while the soluble chelating composition that contained functional groups similar to deferiprone but was a molecular weight higher than 1500 Daltons restricted growth, eventhough the various compounds tested were each capable of binding iron through their pyridinone functionality.

For another assay, the system named is S. aureus. Description: MIC of chelators in Fe-restricted RPMI. The class given is cell-based. The conditions noted are these: Staphylococcus aureus. The procedure:
(§1) Soluble chelating compositions prepared as in example 4 and example 6 as well as the commercially clinically used low molecular weight (<1500 Da) chelators desferal (Novartis Pharmaceutical Company) and deferiprone (Apotex Pharmaceutical Company) were tested as to their MICs against representative pathogenic bacterial species in RPMI medium that had been treated as in example 38 but to which Fe was re-added to known concentrations that permitted growth of the bacteria under partially Fe restrictive conditions, i.e., so as to simulate the low Fe environmental supply available during infection by these bacteria in man or other animals. MIC testing was done in a manner similar to that described for example 15 but with test series being conducted in multi-well microtiter plates, each well providing a separate treatment test.
(§2) The clinically used chelators were not inhibitory in the case of Pseudomonas aeruginosa with no inhibition observed at the highest concentration tested (300 μg/ml for desferal and 100 μg/ml for deferiprone). Staphylococcus aureus was not inhibited by desferal and was inhibited by deferiprone to a lesser extent than for the soluble compositions of the present invention. Conversely, Escherichia coli was not inhibited by deferiprone but was inhibited substantially by desferal.

The next assay has as its system P. aeruginosa. The experiment in a line: MIC of chelators in Fe-restricted RPMI. In kind it is cell-based, Pseudomonas aeruginosa. The procedure:
as §1, §2

Another assay has as its system E. coli. Description: MIC of chelators in Fe-restricted RPMI. In kind it is cell-based, Escherichia coli. The procedure: as §1, §2
Assay [3] deals with Clinical isolates of Staphylococcus aureus. Description: Growth inhibition of clinical isolates in MHB (turbidity 600 nm). In kind it is cell-based. The conditions noted are these: over 7 mM Fe binding equivalents, overnight. The text has this: Clinical isolates of Staphylococcus aureus as obtained from human infections were obtained and are obtainable from the culture collection of Warren Grubb, Curtin University, Perth, Australia. It should be noted that the clinical isolates as obtained from patients at the Royal Perth Hospital in Perth Australia can be expected to have strong similarities to other clinical isolates of this bacterium as obtained elsewhere in the world as the genetic determinants of antibiotic resistance characteristics in Staphylococcus aureus are now generally understood. Thus, similar results to those shown in examples 14-17 can be expected with other clinical isolates as obtained elsewhere and having similar antibiotic resistance patterns to those tested for these examples. […]
A range of dilutions of the deferiprone or soluble chelating composition was prepared in MHB in test tubes so as to provide a range of added iron chelating capacity as measured in Fe binding equivalents. […] The tubes were incubated at an angle on a reciprocating shaker at 37° C. overnight and the growth results were scored as a percentage of growth based on measured turbidity at a wavelength of 600 nm with a spectrophotometer of the test sample, as compared to a control samples that had received no added deferiprone or soluble chelating composition. […]

Assay [4] is described as follows: Overall Fe association constants. The class given is binding. The following applies: Fe (III). From the text:
Measurement of the Fe binding strengths can be measured and compared for different chelating materials.

Results on one molecule are retold here after patent publication US10709784B2, “Metal chelating compositions and methods for controlling the growth or activities of a living cell or organism” (CHELATION PARTNERS INCORPORATED, priority 2011, dated 2020).

Where two headings read alike, the source gives them in different places.

As to `Cc1c(O)c(=O)ccn1C` [Deferiprone, 1,2-dimethyl-3-hydroxy-pyridin-4-one], in assay [1] (chelator added 7.4 mM Fe binding equivalents, * slight growth <5% of control turbidity at 640 μg/ml), the “MIC Streptomycin” value is >640* μg/ml. Moreover, the “growth at 640 μg/ml streptomycin” value in assay [1] (chelator added 15 mM Fe binding equivalents) is “still allowed slight growth”. Besides, the “growth of the yeast compared to control” value in assay [2] is given as “did not substantially restrict growth”. Also, the MIC in the assay with S. aureus (treated RPMI with 0.02 μM Fe) is 12.5 mg/L; in the assay with S. aureus (treated RPMI with 0.09 μM Fe), 25 mg/L; in the assay with P. aeruginosa (Pseudomonas aeruginosa, treated RPMI with 0.02 μM Fe, read-out: MIC), more than 100 mg/L; with P. aeruginosa (treated RPMI with 0.09 μM Fe) it was more than 100 mg/L; with E. coli (Escherichia coli, treated RPMI with 0.02 μM Fe, read-out: MIC), more than 100 mg/L; with E. coli (treated RPMI with 0.09 μM Fe), more than 100 mg/L. Further, in assay [3], the inhibition of growth result was “about 15%”. Moreover, the “Log 10 K(assoc)” value in assay [4] is given as 36.

The term MIC denotes the lowest concentration that inhibits growth of the organism.
